PMC9919513, “A Practical Approach to Bicyclic Carbamoyl Pyridones with Application to the Synthesis of HIV-1 Integrase Strand Transfer Inhibitors” (Molecules, 2023)
Like-named read-outs stand apart in the source and are kept apart here.

Tests used:
[1] = system: HIV-1 vectors that carry WT IN; experiment: Single-round HIV-1 replication antiviral assay, wild-type IN; assay type: cell-based; conditions: for EC50: Human immunodeficiency virus 1, HOS, 48 h, read-out: EC50, antiviral potency, WT IN, VSV-g-pseudotyped HIV-1 luciferase vector with WT IN, HOS cells, 48 h
Description: The bicyclic metal chelating carbamoyl pyridone moiety is common to second-generation tricyclic INSTIs (3, 4, and 5, Figure 1). Analogs of the current study are simplified analogs that lack a third ring. […] The halogen substitution pattern of the benzylamide moiety can affect inhibitory potencies of INSTIs. We determined the antiviral potencies of our compounds in single round HIV-1 replication assays using viral constructs with wild-type IN [31]. Cytotoxicities were determined as previously described. […] In general, the potencies of bicyclic analogs 6 having an unsaturated bond at the C4 position were insensitive to differences in N-methyl substituents. […] Analogs 6g and 6h represent simplified analogs of DTG (3) and CAB (5), respectively, in which the third ring (C-ring) is opened and having doble bond in B-ring, but lacking α-methyl stereochemistry.
Human embryonic kidney cell culture cell line 293 was acquired from the American Type Culture Collection (ATCC). The human osteosarcoma cell line, HOS, was obtained from Dr. Richard Schwartz (Michigan State University, East Lansing, MI, USA) and grown in Dulbecco’s modified Eagle’s medium (Invitrogen, Carlsbad, CA, USA) supplemented with 5% (v/v) fetal bovine serum, 5% newborn calf serum, and penicillin (50 units/mL) plus streptomycin (50 µg/mL; Quality Biological, Gaithersburg, MD, USA). The transfection vector, pNLNgoMIVR-ΔLUC was made from pNLNgoMIVR-ΔEnv.HSA by removing the HSA reporter gene and replacing it with a luciferase reporter gene between the NotI and XhoI restriction sites. To produce the new IN mutant S230N used in this study, the IN open reading frame was removed from pNLNgoMIVR-ΔENV.LUC by digestion with KpnI and SalI, and the resulting fragment was inserted between the KpnI and SalI sites of pBluescript KS+. Using that construct as the wild-type template, we prepared the following HIV-1 IN mutant S230N using the QuikChange II XL site-directed mutagenesis kit (Agilent Technologies, Santa Clara, CA, USA) protocol. The following sense oligonucleotides were used with matching cognate antisense oligonucleotides (not shown) (Integrated DNA Technologies, Coralville, IA, USA) in the mutagenesis: S230N 5′-[…]-3′. The DNA sequence of the IN mutant S230N construct was verified independently by DNA sequence determination. The mutated IN coding sequences from pBluescript KS+ were then subcloned into pNLNgoMIVR-ΔEnv.LUC (between the KpnI and SalI sites) to produce mutant HIV-1 constructs, which were also checked by DNA sequencing. […]. On the day prior to transfection, 293 cells were plated on 100 mm diameter dishes at a density of 1.5 × 10^6 cells per plate. Next, 293 cells were transfected with 16 µg of pNLNgoMIVR^-ΔLUC and 4 µg of pHCMV-g (obtained from Dr. Jane Burns, University of California, San Diego) using the calcium phosphate method. At approximately 6 h after the calcium phosphate precipitate was added, 293 cells were washed twice with phosphate-buffered saline (PBS) and incubated with fresh media for 48 h. The virus-containing supernatants were then harvested, clarified by low-speed centrifugation, filtrated, and diluted for preparation in antiviral infection assays. On the day prior to the screen, HOS cells were seeded in a 96-well luminescence cell culture plate at a density of 4000 cells in 100 µL per well. On the day of the screen for cellular cytotoxicity determination, cells were treated with compounds from a concentration range of 250 µM to 0.05 µM and then incubated at 37 °C for 48 h. On the day of the screen for antiviral activity infection assays, cells were treated with compounds from a concentration range of 5 µM to 0.0001 µM using 11 serial dilutions and then incubated at 37 °C for 3 h. After compound incorporation and activation in the cell, 100 µL of virus-stock (WT or mutant) diluted to achieve a luciferase signal between 0.2 and 1.5 Relative Luciferase Units (RLUs) was added to each well and further incubated at 37 °C for 48 h. […]

[2] = system: HIV-1 vectors bearing the S230N IN mutant; conditions: single round infection assays, read-out: EC50 against the S230N IN mutant; cited from earlier work
in vitro = assay type: cell-based; conditions: human, HOS cells, 48 h; read-out: CC50, cytotoxic concentration resulting in 50% reduction in the level of ATP
Description: Human embryonic kidney cell culture cell line 293 was acquired from the American Type Culture Collection (ATCC). The human osteosarcoma cell line, HOS, was obtained from Dr. Richard Schwartz (Michigan State University, East Lansing, MI, USA) and grown in Dulbecco’s modified Eagle’s medium (Invitrogen, Carlsbad, CA, USA) supplemented with 5% (v/v) fetal bovine serum, 5% newborn calf serum, and penicillin (50 units/mL) plus streptomycin (50 µg/mL; Quality Biological, Gaithersburg, MD, USA). The transfection vector, pNLNgoMIVR-ΔLUC was made from pNLNgoMIVR-ΔEnv.HSA by removing the HSA reporter gene and replacing it with a luciferase reporter gene between the NotI and XhoI restriction sites. To produce the new IN mutant S230N used in this study, the IN open reading frame was removed from pNLNgoMIVR-ΔENV.LUC by digestion with KpnI and SalI, and the resulting fragment was inserted between the KpnI and SalI sites of pBluescript KS+. Using that construct as the wild-type template, we prepared the following HIV-1 IN mutant S230N using the QuikChange II XL site-directed mutagenesis kit (Agilent Technologies, Santa Clara, CA, USA) protocol. The following sense oligonucleotides were used with matching cognate antisense oligonucleotides (not shown) (Integrated DNA Technologies, Coralville, IA, USA) in the mutagenesis: S230N 5′-[…]-3′. The DNA sequence of the IN mutant S230N construct was verified independently by DNA sequence determination. The mutated IN coding sequences from pBluescript KS+ were then subcloned into pNLNgoMIVR-ΔEnv.LUC (between the KpnI and SalI sites) to produce mutant HIV-1 constructs, which were also checked by DNA sequencing. […]. On the day prior to transfection, 293 cells were plated on 100 mm diameter dishes at a density of 1.5 × 10^6 cells per plate. Next, 293 cells were transfected with 16 µg of pNLNgoMIVR^-ΔLUC and 4 µg of pHCMV-g (obtained from Dr. Jane Burns, University of California, San Diego) using the calcium phosphate method. At approximately 6 h after the calcium phosphate precipitate was added, 293 cells were washed twice with phosphate-buffered saline (PBS) and incubated with fresh media for 48 h. The virus-containing supernatants were then harvested, clarified by low-speed centrifugation, filtrated, and diluted for preparation in antiviral infection assays. On the day prior to the screen, HOS cells were seeded in a 96-well luminescence cell culture plate at a density of 4000 cells in 100 µL per well. On the day of the screen for cellular cytotoxicity determination, cells were treated with compounds from a concentration range of 250 µM to 0.05 µM and then incubated at 37 °C for 48 h. On the day of the screen for antiviral activity infection assays, cells were treated with compounds from a concentration range of 5 µM to 0.0001 µM using 11 serial dilutions and then incubated at 37 °C for 3 h. After compound incorporation and activation in the cell, 100 µL of virus-stock (WT or mutant) diluted to achieve a luciferase signal between 0.2 and 1.5 Relative Luciferase Units (RLUs) was added to each well and further incubated at 37 °C for 48 h. Cellular cytotoxicity was measured by using the ATP Lite Luminescence detection system and monitored by adding 50 µL of cell lysis buffer from the Luminescence ATP detection assay to each well followed by mixing at 700 rpm at room temperature for 5 min using a compact thermomixer. After addition of 50 µL of reconstituted Luminescence ATP detection assay reagent to all wells except for the negative control/background wells, the plates were mixed at 700 rpm at room temperature for 5 min using a compact thermomixer, incubated at room temperature for 20 min to allow time for signal development, and finally, cytotoxicity was determined using the microplate reader. Infectivity was measured by using the Steady-lite plus luminescence reporter gene assay system (PerkinElmer, Waltham, MA, USA). […]

[3] = system: HIV-1 vectors bearing the S230N IN mutant; experiment: Single-round HIV-1 replication antiviral assay, S230N IN mutant; assay type: cell-based
Source text: To further evaluate the antiviral activities of select compounds, we determined their EC50 values against the IN mutant S230N, which has been selected in vitro against an early Merck INSTI L810,830, a prototype for naphthyridine analogs.
Human embryonic kidney cell culture cell line 293 was acquired from the American Type Culture Collection (ATCC). The human osteosarcoma cell line, HOS, was obtained from Dr. Richard Schwartz (Michigan State University, East Lansing, MI, USA) and grown in Dulbecco’s modified Eagle’s medium (Invitrogen, Carlsbad, CA, USA) supplemented with 5% (v/v) fetal bovine serum, 5% newborn calf serum, and penicillin (50 units/mL) plus streptomycin (50 µg/mL; Quality Biological, Gaithersburg, MD, USA). The transfection vector, pNLNgoMIVR-ΔLUC was made from pNLNgoMIVR-ΔEnv.HSA by removing the HSA reporter gene and replacing it with a luciferase reporter gene between the NotI and XhoI restriction sites. To produce the new IN mutant S230N used in this study, the IN open reading frame was removed from pNLNgoMIVR-ΔENV.LUC by digestion with KpnI and SalI, and the resulting fragment was inserted between the KpnI and SalI sites of pBluescript KS+. Using that construct as the wild-type template, we prepared the following HIV-1 IN mutant S230N using the QuikChange II XL site-directed mutagenesis kit (Agilent Technologies, Santa Clara, CA, USA) protocol. The following sense oligonucleotides were used with matching cognate antisense oligonucleotides (not shown) (Integrated DNA Technologies, Coralville, IA, USA) in the mutagenesis: S230N 5′-[…]-3′. The DNA sequence of the IN mutant S230N construct was verified independently by DNA sequence determination. The mutated IN coding sequences from pBluescript KS+ were then subcloned into pNLNgoMIVR-ΔEnv.LUC (between the KpnI and SalI sites) to produce mutant HIV-1 constructs, which were also checked by DNA sequencing. […]. On the day prior to transfection, 293 cells were plated on 100 mm diameter dishes at a density of 1.5 × 10^6 cells per plate. Next, 293 cells were transfected with 16 µg of pNLNgoMIVR^-ΔLUC and 4 µg of pHCMV-g (obtained from Dr. Jane Burns, University of California, San Diego) using the calcium phosphate method. At approximately 6 h after the calcium phosphate precipitate was added, 293 cells were washed twice with phosphate-buffered saline (PBS) and incubated with fresh media for 48 h. The virus-containing supernatants were then harvested, clarified by low-speed centrifugation, filtrated, and diluted for preparation in antiviral infection assays. On the day prior to the screen, HOS cells were seeded in a 96-well luminescence cell culture plate at a density of 4000 cells in 100 µL per well. On the day of the screen for cellular cytotoxicity determination, cells were treated with compounds from a concentration range of 250 µM to 0.05 µM and then incubated at 37 °C for 48 h. On the day of the screen for antiviral activity infection assays, cells were treated with compounds from a concentration range of 5 µM to 0.0001 µM using 11 serial dilutions and then incubated at 37 °C for 3 h. After compound incorporation and activation in the cell, 100 µL of virus-stock (WT or mutant) diluted to achieve a luciferase signal between 0.2 and 1.5 Relative Luciferase Units (RLUs) was added to each well and further incubated at 37 °C for 48 h. Cellular cytotoxicity was measured by using the ATP Lite Luminescence detection system and monitored by adding 50 µL of cell lysis buffer from the Luminescence ATP detection assay to each well followed by mixing at 700 rpm at room temperature for 5 min using a compact thermomixer. […]

SMILES	EC50 [1] [nM]	EC50 [2] [nM]	melting point [°C]	CC50 (in vitro) [nM]	Ratio of the antiviral potencies after and before hydrogenation (WT) ([1]; EC50 of saturated 7 over EC50 of unsaturated 6, WT IN)	Ratio of the antiviral potencies after and before hydrogenation (S230N) ([3]; EC50 of saturated 7 over EC50 of unsaturated 6, S230N IN)	EC50 ([3]; Human immunodeficiency virus 1, HOS, 48 h, read-out: EC50, antiviral potency, S230N IN mutant) [nM]
C[C@@H]1CCO[C@H]2Cn3cc(C(=O)NCc4ccc(F)cc4F)c(=O)c(O)c3C(=O)N12 [DTG, Dolutegravir, reference compound]	~2	7.9 ± 1.3	–	–	–	–	–
CC(C)CC(C)n1ccn2cc(C(=O)NCc3ccc(F)cc3F)c(=O)c(O)c2c1=O (stereo not shown) [Compound 6i, N-(2,4-Difluorobenzyl)-9-hydroxy-2-(4-methylpentan-2-yl)-1,8-dioxo-1,8-dihydro-2H-pyrido [1,2-a]pyrazine-7-carboxamide]	4.2 ± 1	–	199 to 203	> 250000	–	–	–
O=C(NCc1ccc(F)cc1F)c1cn2c(c(O)c1=O)C(=O)N(CCCCCO)CC2 [Compound 7d, N-(2,4-Difluorobenzyl)-9-hydroxy-2-(5-hydroxypentyl)-1,8-dioxo-1,3,4,8-tetrahydro-2H-pyrido [1,2-a]pyrazine-7-carboxamide]	54.5 ± 3	–	201 to 207	–	5.0	6.29	97
